Measurements taken from BindingDB's records for doi:10.1124/jpet.300.3.1122 (Sanofi-Synthelabo Recherche, 2002).

What was measured:
Vasopressin V1a receptor = Vasopressin V1a receptor (Rattus norvegicus, UniProt P30560)
Oxytocin receptor = target: T1, Oxytocin receptor (Rattus norvegicus, UniProt P70536)
T1 sequence (P70536 whole entry): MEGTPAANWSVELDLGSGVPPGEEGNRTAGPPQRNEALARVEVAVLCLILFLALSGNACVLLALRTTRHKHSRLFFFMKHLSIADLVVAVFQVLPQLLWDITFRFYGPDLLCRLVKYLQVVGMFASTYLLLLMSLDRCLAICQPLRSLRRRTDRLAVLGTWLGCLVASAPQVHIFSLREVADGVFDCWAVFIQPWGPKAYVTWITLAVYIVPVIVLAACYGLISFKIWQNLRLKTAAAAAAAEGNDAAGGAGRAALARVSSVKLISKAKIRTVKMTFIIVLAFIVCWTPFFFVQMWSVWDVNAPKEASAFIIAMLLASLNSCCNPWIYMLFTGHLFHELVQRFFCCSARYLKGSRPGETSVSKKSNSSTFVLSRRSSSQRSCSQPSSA

Vasopressin V1b receptor = target: T2, Vasopressin V1b receptor (Bos taurus, UniProt F1ME85)
T2 sequence (F1ME85 whole entry): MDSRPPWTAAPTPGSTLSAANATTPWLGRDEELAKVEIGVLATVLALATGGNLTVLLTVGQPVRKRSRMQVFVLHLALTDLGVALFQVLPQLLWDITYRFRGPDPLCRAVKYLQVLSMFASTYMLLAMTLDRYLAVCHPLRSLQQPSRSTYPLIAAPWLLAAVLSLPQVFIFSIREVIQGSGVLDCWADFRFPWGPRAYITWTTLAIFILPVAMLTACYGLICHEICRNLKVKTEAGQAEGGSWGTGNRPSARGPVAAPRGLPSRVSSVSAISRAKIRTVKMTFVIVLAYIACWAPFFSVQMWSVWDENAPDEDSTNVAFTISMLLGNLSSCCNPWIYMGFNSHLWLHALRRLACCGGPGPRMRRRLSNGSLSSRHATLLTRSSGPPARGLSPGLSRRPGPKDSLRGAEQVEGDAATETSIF

Vasopressin V2 receptor = Vasopressin V2 receptor (Rattus norvegicus, UniProt Q00788)
Sequence of Vasopressin V2 receptor (Q00788 whole entry): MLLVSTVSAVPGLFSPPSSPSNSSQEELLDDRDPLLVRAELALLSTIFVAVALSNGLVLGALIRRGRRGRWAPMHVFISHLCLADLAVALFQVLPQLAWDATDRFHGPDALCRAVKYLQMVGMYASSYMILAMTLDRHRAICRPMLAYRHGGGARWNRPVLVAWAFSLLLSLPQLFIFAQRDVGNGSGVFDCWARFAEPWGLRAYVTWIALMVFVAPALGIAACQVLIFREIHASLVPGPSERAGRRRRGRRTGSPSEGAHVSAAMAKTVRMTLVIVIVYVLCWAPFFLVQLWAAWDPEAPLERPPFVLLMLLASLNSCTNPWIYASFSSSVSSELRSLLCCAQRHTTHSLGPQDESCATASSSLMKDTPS

Sequence of Vasopressin V1a receptor (P30560 whole entry): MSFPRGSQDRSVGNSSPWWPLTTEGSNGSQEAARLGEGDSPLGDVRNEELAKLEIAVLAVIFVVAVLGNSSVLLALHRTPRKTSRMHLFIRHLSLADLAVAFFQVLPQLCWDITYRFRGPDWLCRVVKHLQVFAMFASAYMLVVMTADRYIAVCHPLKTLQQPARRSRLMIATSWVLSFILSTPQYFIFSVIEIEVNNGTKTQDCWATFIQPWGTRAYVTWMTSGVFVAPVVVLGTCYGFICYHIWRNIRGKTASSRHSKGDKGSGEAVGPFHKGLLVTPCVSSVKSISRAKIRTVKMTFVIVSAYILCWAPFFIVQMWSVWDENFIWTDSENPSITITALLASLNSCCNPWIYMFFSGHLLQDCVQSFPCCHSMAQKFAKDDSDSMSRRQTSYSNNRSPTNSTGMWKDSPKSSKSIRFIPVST

With `COc1ccc(S(=O)(=O)N2C(=O)[C@@](c3ccccc3OC)(N3C[C@H](O)C[C@H]3C(=O)N(C)C)c3cc(Cl)ccc32)c(OC)c1` [SSR149415] the Ki (Vasopressin V1a receptor) was 1050 nM, the Ki (Oxytocin receptor) was 270 nM and the Ki (Vasopressin V1b receptor) was 2.7 nM. The Ki (Vasopressin V2 receptor) was 2900 nM.
